Assay results as given in US20060222647A1, “Methods and compositions for modulating the activity of PDE5” (priority 1993, published 2006).
Where two headings read alike, the source gives them in different places. Values belong to the compound of their own block, whether it stands above or below them.

Key:
recombinant mouse PDE5 [1] = molecular target: T1, recombinant mouse PDE5 (Mus musculus, UniProt Q8CG03); assay: PDE5 activity assay of recombinant mouse PDE5 expressed in HEK 293 cells; type: biochemical; conditions: for IC50: IC50 for sildenafil inhibition
T1 construct: made in house; host or cells: HEK 293 cells, transient transfection; lysate supernatant or Mono Q fractions
Description: Phosphodiesterase assays were carried out according to established procedures. All assays were performed for 5 min (unless otherwise indicated) at 30° C. using different concentrations of cGMP (0.1-10 μM) as substrates. Protein concentrations were determined by the Coomassie Plus protein assay (Pierce).
Recombinant mouse PDE5 was expressed in HEK 293 cells. […] The cells were lysed in a small volume of homogenization buffer in order to obtain a concentrated extract, and then the cell extract was preincubated with 50 μM cGMP on ice without PDE inhibitors (filled triangles, FIGS. 11A and 11B) or with 0.2 μM sildenafil (filled circles, FIG. 11B). At different time points aliquots were diluted 1/400-1/500, and different amounts of diluted extract (additional dilution 1/5-1/10) were used for PDE5 activity assayed at 0.1 μM cGMP for 5 min at 30° C. An additional portion of 50 μM cGMP was added to the preincubation mixture at 60 min after the start of preincubation as indicated by an arrow (open triangles, FIG. 11A). PDE5 activity was expressed as pmol/min/μg of protein. […] The percent of 50 μM cGMP hydrolysis at different time points was measured using the PDE5 activity assay.
To investigate this further, PDE5 was preincubated of with 50 μM cGMP on ice and an aliquot was diluted and assayed with either 0.1 μM, 1.0 μM or […] cGMP for 5 min at 30° C. Data are expressed as fold activation of PDE5 activity after preincubation with 50 μM cGMP (FIG. 12A).
PDE5 activity was measured at 0.1 μM (FIG. 16A), 1.0 μM (FIG. 16B) or 10 μM cGMP (FIG. 16C). It was analyzed without any treatments (filled squares), or after preincubation with 50 μM cGMP on ice (filled triangles), or after preincubation with mAb/P3B2 for 30 min on ice (filled circles). Treatment of PDE5 with mAb/P3B2 for 30 min on ice preceded preincubation with 50 μM cGMP (open circles). PDE5 activity was expressed as […].
Kinetic and inhibitory characteristics of activated PDE5. […] FIG. 18A depicts a Lineweaver-Burk double-reciprocal plot (0.1-10 μM cGMP) of activated (after preincubation with cGMP on ice) (filled triangles) PDE5 and mAb/P3B2 treated PDE5 (filled circles). PDE5 activity was expressed as pmol/min/μg of protein. […] PDE5 activities, assayed at each substrate concentration without sildenafil, were expressed as 100%. Km, Vmax and IC50 values were calculated using GraphPad Prism 2.0 C (GraphPad Software, San Diego, Calif.).

cGB-PDE = cGB-PDE (Bos taurus, UniProt Q28156); assay: Metal dependence of cGB-PDE PDE activity; type: biochemical
Description: The catalytic domains of mammalian PDEs and a Drosophila PDE contain two tandem conserved sequences (HX3 HX24 26 E) that are typical Zn^2+-binding motifs in Zn^2+ hydrolases such as thermolysin (Vallee and Auld, Biochem., 29: 5647-5659 (1990)). cGB-PDE binds Zn^2+ in the presence of large excesses of Mg^2+, Mn^2+, Fe^2+, Fe^3+, Ca^2+ or Cd^2+. In the absence of added metal, cGB-PDE has a PDE activity that is approximately 20% of the maximum activity that occurs in the presence of 40 mM Mg^2+, and this basal activity is inhibited by 1,10-phenanthroline or EDTA. […] PDE activity is stimulated by addition of Zn^2+ (0.02-1 μM) or Co^2+([…]), but not by Fe^2+, Fe^3+, Ca^2+, Cd^2+, or Cu^2+. Zn increases the basal PDE activity up to 70% of the maximum stimulation produced by 40 mM Mg^2+. The stimulatory effect of Zn^2+ in these assays may be compromised by an inhibitory effect that is caused by Zn^2+ concentrations>1 μM. The Zn^2+-supported PDE activity and Zn^2+ binding by cGB-PDE occur at similar concentrations of Zn^2+ cGB-PDE thus appears to be a Zn^2+ hydrolase and Zn^2+ appears to play a critical role in the activity of the enzyme. See, Colbran et al., The FASEB J., 8: Abstract 2148 (Mar. 15, 1994).

bovine cGB-PDE = molecular target: T2, bovine cGB-PDE (Bos taurus, UniProt Q28156); assay: [3H]cGMP-binding assay of extracts of COS-7 cells transfected with pCDM8-cGB-PDE
T2 construct: which contains the entire coding region of cGB-8; made in house; host or cells: COS-7 cells, whole-cell extract
Description: Cell extracts were assayed for [^3H]cGMP-binding activity in the absence or presence of 0.2 mM 3-isobutyl-1-methylaxanthine (IBMX) (Sigma), a competitive inhibitor of cGMP hydrolysis. The cGMP binding assay, modified from the assay described in Thomas I, supra, was conducted in a total volume of 80 μl. […] Assays were carried out in the absence and presence of 0.2 mM IBMX. The reaction was initiated by the addition of the cell extract, and was incubated for 60 minutes at 0° C. Filtration of the reaction mixtures was carried out as described in Thomas I, supra. Blanks were determined by parallel incubations with homogenization buffer replacing cell extracts, or with a 100-fold excess of unlabelled cGMP.
Results of the assay are set out in FIG. 7. […] The ability of IBMX to stimulate cGMP binding 2-5 fold is a distinctive property of the cGMP-binding phosphodisterases.
Results are presented in FIG. 8 wherein cGMP binding in the absence of unlabelled competitor was taken as 100% and each data point represents the average of three separate determinations.

[2] = molecular target: expressed bovine cGB-PDE cDNA protein product (Bos taurus, UniProt Q28156); assay: cGMP phosphodiesterase activity of extracts of COS cells transfected with bovine cGB-PDE, in presence of PDE inhibitors; type: biochemical
D478A mutant cGB-PDE = D478A mutant cGB-PDE (Bos taurus, UniProt Q28156, D478A); assay: cGMP-binding kinetics of D478A mutant cGB-PDE; set-up: species or system bovine
recombinant mouse PDE5 [3] = molecular target: T1, recombinant mouse PDE5; assay: PDE5 activity assay of recombinant mouse PDE5 expressed in HEK 293 cells; type: biochemical; conditions: assayed at 10 μM cGMP
recombinant PDE5 = molecular target: T3, recombinant PDE5 (Mus musculus, UniProt Q8CG03); assay: cGMP saturation binding assay (Millipore filter binding); conditions: 0.01-20 μM cGMP, IBMX present, 30 min on ice
T3 construct: made in house; host or cells: HEK 293 cells, transient transfection; lysate supernatant or Mono Q fractions
Description: Binding studies were conducted by the Millipore filter binding assay in a total volume of 40 μl containing binding buffer (50 mM Tris-HCl, pH 7.5, 2.0 mM EDTA, 1 mM DTT, 100 mM NaCl) and 0.1 mM IBMX in the presence of 0.01 -20 μM ^3H-cGMP. In some experiments an additional 30 min preincubation of recombinant PDE5 with monoclonal antibodies (mAb/P3B2 or mAb/P4D8) was performed before addition of cGMP. Following a 30 min incubation on ice, 1 ml of ice cold binding buffer was added to the assays. The samples were immediately filtered through a Millipore HAWP nitrocellulose membrane (pore size 0.45 μM, 24 mm diameter) and rinsed three times with ice cold binding buffer (10 ml each). The filters were dissolved in 5 ml of Filter Count™ (Packard Instrument) and counted in a liquid scintillation counter.
The cGMP saturation binding assay was employed (FIG. 14) using recombinant PDE5 without (filled squares) or with preincubation with monoclonal antibodies mAb/P3B2 (filled circles) or mAb/P4D4 (filled triangles) for 30 min on ice, to determine the Kd for cGMP binding. The binding assays were performed with 0.01-20 μM cGMP in the presence of […] for 30 min on ice. The specific binding (cpm) is calculated by subtraction of nonspecific binding from total binding. […] A linear scatchard plot of the cGMP binding data indicated one class of cGMP-binding sites. […]

[4] = molecular target: native cGB-PDE and WT cGB-PDE (Bos taurus, UniProt Q28156); assay: cGMP-binding kinetics of native and recombinant wild type cGB-PDE; set-up: species or system bovine
D289A mutant cGB-PDE = D289A mutant cGB-PDE (Bos taurus, UniProt Q28156, D289A); assay: cGMP-binding kinetics of D289A mutant cGB-PDE
Description: This curvilinearity may have been due to the presence of distinct high affinity (slow) and low affinity (fast) sites of cGMP binding.

[5] = activated PDE5 (preincubated with 50 μM cGMP)

SMILES: CCCc1nn(C)c2c(=O)[nH]c(-c3cc(S(=O)(=O)N4CCN(C)CC4)ccc3OCC)nc12 [sildenafil]
time PDE5 activation was sustained during preincubation with 50 μM cGMP (recombinant mouse PDE5 [1]; 0.2 μM sildenafil in preincubation mixture): at least 90 min | IC50 (recombinant mouse PDE5 [1]; activated PDE5, assayed at 0.1 μM cGMP): 0.6 nM | IC50 (recombinant mouse PDE5 [1]; activated PDE5, assayed at 1.0 μM cGMP): 1.2 nM | IC50 (recombinant mouse PDE5 [1]; control PDE5, assayed at 0.1 μM cGMP): 2.1 nM | IC50 (recombinant mouse PDE5 [1]; control PDE5, assayed at 1.0 μM cGMP): 4.9 nM

effect on basal PDE activity in absence of added metal (cGB-PDE): inhibited
SMILES: c1cnc2c(c1)ccc1cccnc12 [1,10-phenanthroline]

SMILES: O=C(O)CN(CCN(CC(=O)O)CC(=O)O)CC(=O)O [EDTA]
effect on basal PDE activity in absence of added metal (cGB-PDE): inhibited

SMILES: CC(C)Cn1c(=O)n(C)c(=O)c2[nH]cnc21 [IBMX, 3-isobutyl-1-methylaxanthine]
stimulation of cGMP binding (bovine cGB-PDE; 0.2 mM IBMX, 1 μM [3H]cGMP): approximately 1.8 fold

SMILES: COc1ccc(C2CNC(=O)C2)cc1OC1CCCC1 (stereo not drawn) [rolipram]
IC50 [2]: > 300000 nM

SMILES: Nc1nc2c(ncn2[C@@H]2O[C@@H]3COP(=O)(O)O[C@H]3[C@H]2O)c(=O)[nH]1 [cGMP]
Kd (D478A mutant cGB-PDE): ~500 nM | t1/2 of single cGMP-dissociation rate (D478A mutant cGB-PDE): 2.8 h | PDE5 activation after preincubation with 50 μM cGMP (recombinant mouse PDE5 [3]): not detectable | Km (recombinant mouse PDE5 [1]; [5]): 0.96 µM | Vmax (recombinant mouse PDE5 [1]; [5]): 27 pmol/min/μg of protein | PDE5 activation after preincubation with 50 μM cGMP (recombinant mouse PDE5 [1]; assayed at 0.1 μM cGMP, 5 min 30° C., 15 min preincubation on ice): 10 times | PDE5 activation after preincubation with 50 μM cGMP (recombinant mouse PDE5 [1]; assayed at 1.0 μM cGMP): 2-3 times | Vmax (recombinant mouse PDE5 [1]; non-activated PDE5 (mAb/P3B2 treated)): 8.9 pmol/min/μg of protein | Km (recombinant mouse PDE5 [1]; non-activated PDE5 (mAb/P3B2 treated), read-out: Km for cGMP): 4.6 µM | Kd (recombinant PDE5): 120 nM | excess concentration of unlabelled competitor required to inhibit [3H]cGMP binding by 50% (bovine cGB-PDE; 2.5 μM [3H]cGMP): Less than 10 fold higher concentrations | Kd [4]: ~2000 nM | t1/2 of single rate of cGMP-association (D289A mutant cGB-PDE): 0.5 h | Kd (D289A mutant cGB-PDE; read-out: Kd of cGMP binding): > 20000 nM

IC50 [2]: 2000 nM
SMILES: CCCOc1ccccc1-c1nc2nn[nH]c2c(=O)[nH]1
